This note sets out measurements from patent publication US6482609B1, “Isolated human EDG-4 receptor and polynucletide encoding said receptor” (priority 1997, dated 2002).

Experiment [1] has as its target T1, human EDG-3 (Homo sapiens, UniProt Q99500).
T1 construct: expressed in transfected cells; host or cells: 293-EBNA
Put plainly: SRE luciferase reporter in 293-EBNA cells, EDG-3. As to conditions: EDG-3 clone pC3-E3HP2; 3 μM; 6 hours. Format: cell-based. The protocol:
NE-κB activates gene expression by binding to specific DNA sequences found in the promoters of genes regulated by this inflammation-related transcription factor. […] Transient Transfection Protocol for 293-EBNA (Assay 3): The protocol described in Example 11 for Assay 1 was followed except for the following changes: […] 3) 30 μl Lipofectamine Reagent (Lipofectamine Plus Kit) was diluted in 750 μl DMEM/F12. The diluted Lipofectamine was then combined with the DNA/Plus mixture and incubated at room temperature for 15 min. […] 2) Transfected cells were harvested by trypsinization and 50,000 cells per well were plated in 96-well Blackview plates coated with poly D-lysine (Becton Dickinson Labware, Cat. 40640). No cells were plated in the outside wells of the 96-well plate. […] The following treatments were used for all transfections: […] 2) The cells were treated for 6 hours. 3) Luciferase assay was performed.

In experiment [2] the test system is human EDG-3. Briefly: NF-κB luciferase reporter in 293-EBNA cells, EDG-3. Format: cell-based. As to conditions: for NF-κB response, original human EDG-3 clone: original human EDG-3 clone (pC3-hedg3). The procedure:
(§1) 2) 3 μg NFκB-tk-p4Luc reporter DNA and 3 μg pC3-hedg1, pC3-hedg3, pC3-redg4, pC3-hedg5 or pcDNA3 DNA was diluted in 240 μl OPTI-MEM (Gibco; Cat. 31985-062)
Transient Transfection Protocol for 293-EBNA (Assay 3):
The protocol described in Example 11 for Assay 1 was followed except for the following changes:
(§2) 2) SRE Cotransfection: 0.5 μg of 2XSREtk-p4Luc-zeo reporter DNA and 3.5 μg pcDNA3, EDG-1, EDG-3 (pC3-hE3HP2, different from the clone used in Assay 2 of Example 11) or the newly cloned human EDG-4 (pC3-hedg4#36); NF-κB Cotransfection: 2 μg 6XNFκBtk-p4Luc-zeo reporter DNA and 2.0 μg pcDNA3, EDG-1, EDG-3 (pC3-hE3HP2), or EDG-4 (pC3-hedg4#36). Expression plasmid and reporter plasmid DNA samples were combined and diluted in 750 μl of DMEM/F12 (serum free media) and 20 μl Plus Reagent (Lipofectamine Plus Kit, Life Technologies Cat. 10964-013), and incubated at room temperature for 15 min.
3) 30 μl Lipofectamine Reagent (Lipofectamine Plus Kit) was diluted in 750 μl DMEM/F12. The diluted Lipofectamine was then combined with the DNA/Plus mixture and incubated at room temperature for 15 min.
6) The transfection medium was replaced with serum-free DMEM/F12 for cells transfected with 2XSREtk-p4Luc-zeo reporter DNA and with DMEM/F12 plus 10% FBS for cells tansfected with 6XNFκBtk-p4Luc-zeo reporter DNA.
2) Transfected cells were harvested by trypsinization and 50,000 cells per well were plated in 96-well Blackview plates coated with poly D-lysine (Becton Dickinson Labware, Cat. 40640). No cells were plated in the outside wells of the 96-well plate.
1) Media for cells transfected with 6XNFκBtk-p4Luc-zeo reporter DNA was replaced with DMEM/F12 plus 0.5%FBS.
(§3) 1) Media was removed and cells treated with compounds diluted in DMEM/F12 media.
(§4) 2) The cells were treated for 6 hours.
3) Luciferase assay was performed.

In a further experiment the test system is HeLa cells. Briefly: IL-8 ELISA on supernatants of treated HeLa cells. Format: cell-based, human. The following applies: for PTX sensitivity of the IL-8 response: PTX 50 ng/ml overnight pre-treatment; for IL-8 induction: concentration series up to 10 μM, 6 hours. The procedure:
Procedure #1 For HeLa Cells
Cells: HeLa (adenocarcinoma, human)
Media: DMEM/F12+10%FBS adherent
1) Cells were seeded at 0.2×10^6 cells/well in 6-well plates.
2) 1.5 ml 0.5% FBS media was added to each well.
1) Made up all required solutions in 0.5% FBS media (control). Handling of […] for use in NF-κB experiments requires that sonication, commonly used to resuspend LPA, not be done; NF-κB may be activated by lipid peroxides created through vigorous frothing.
3) 1.5 ml appropriate treatments were added to each well.
5) After the specified time cell supernatants were collected into 1.5 ml eppendorf tubes, spun down at 14000 rpm for 5 minutes and stored at −20° C. for later ELISA determination.
D. Detection of Interleukin-8 (IL-8) using an IL-8 ELISA (Enzyme-Linked InimunoSorbent Assay).
1) The Quantikine Human IL-8 ImmunoAssay Kit was obtained from R&D Systems (Cat. D8050).
4) The assay procedure was followed as recommended in the kit for cell culture supernatant samples.
5) ELISA was performed on 50 μl samples of culture supernatant and duplicate samples were measured for each well. Each treatment was performed on triplicate wells.
6) Plates were read on UVmax kinetic microplate reader (Molecular Devices), set to 450 nm and correction set to 575 nm, using Wsoftmax software version 2.34.
Procedure #2 For HeLa Cells
1) Cells were seeded at 2.5×10^4 cells/well in 24-well plates.
2) 0.5 ml 0.5% FBS media was added to all wells not requiring PTX pre-treatment.
3) For wells requiring PTX; 0.5 ml 0.5% FBS media containing 50 ng/ml PTX (1 volume PTX (RBI Cat. P140): 1 volume DTT, incubate 37° C. for 30 minutes then dilute to 50 ng/ml) was added.
Follow Procedure #2 For HeLa Cells with the following exceptions:
Concentrations for LPC, LPE, LPG, LPS, sphingosine and SM used were 10, 50, 100, 1000, and 5000 nM. Concentrations for LPI, lyso-PAF and lysosulfatide used were 0.3 and 3 μM.
2) A 30 minute pre-treatment at 37° C./5%CO2 of 0.5 ml of suramin was done to all wells except control, any PTX and ET-18-OCH3 wells before step 3 of section C.

The test system of experiment [3] is 293-EBNA cells transfected with empty expression vector pcDNA3. Put plainly: NF-κB luciferase reporter in 293-EBNA cells, empty vector pcDNA3. Format: cell-based. The following applies: for NF-κB reporter response in control cells: pcDNA3-transfected 293-EBNA; for NF-κB reporter induction in control cells: pcDNA3, 3 μM, 6 hours, Assay #3. The procedure:
Monolayer Transient Transfection Protocol for 293-EBNA
2) 6.6 μg NF-κB-tk-p4Luc reporter DNA and 6.6 μg of pC3-redg4 (expressing rat EDG-4), or pcDNA3 DNA was diluted in 500 μl OPTI-MEM (Gibco; Cat. 31985-062)
2) After 6 hrs, media was removed and cells treated with compounds diluted in 0.5% FBS media (140 μl added to each well).
3) Cells were treated for 24 hrs.
1) Luclite kit (Packard; Cat. 6016911) was used for luciferase assay. All reagents were brought to room temperature before use.
7) After incubation, plates were counted in a 12-detector Packard Top Count on a program without dark delay.
The above protocol for assay 1 was followed except for the following changes:
as §1, §2, §3, §4
293-EBNA cells were grown, lipofected in monolayer cultures, and pretreated as described above for Example 11, assay #1, except that NF-κB and AP-1 reporter-transfected cells were pretreated for 6 hr in medium containing 0.5% FBS, then treated overnight in the same medium with or without 10 μM LPA.

[4] abbreviates: Assay #2, S1P, SPC 3 μM, 20% FBS.

T1 sequence (Q99500 whole entry): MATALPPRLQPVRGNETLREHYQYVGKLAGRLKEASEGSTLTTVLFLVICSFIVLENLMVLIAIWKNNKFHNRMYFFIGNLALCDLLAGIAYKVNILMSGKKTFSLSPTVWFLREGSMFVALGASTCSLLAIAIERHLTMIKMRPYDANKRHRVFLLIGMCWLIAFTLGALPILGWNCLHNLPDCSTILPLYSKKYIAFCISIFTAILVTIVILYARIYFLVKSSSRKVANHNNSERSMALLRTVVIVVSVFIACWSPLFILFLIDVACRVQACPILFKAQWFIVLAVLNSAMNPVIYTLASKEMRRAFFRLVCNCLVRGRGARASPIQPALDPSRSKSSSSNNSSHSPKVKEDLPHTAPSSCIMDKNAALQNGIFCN

As to `CCCCCCCCCCCCC/C=C/[C@@H](O)[C@@H](N)COP(=O)(O)O` [S1P, sphingosine-1-phosphate], the SRE response at human EDG-3 [1] is 12 fold. In addition, the “NF-κB response, original human EDG-3 clone” value in the experiment on human EDG-3 [2] was “did not produce a NF-κB response”. The “IL-8 production at 0.3 μM” value with HeLa cells (0.3 μM, 6 hr) is listed as “near plateau values”. For the same compound, in the experiment on HeLa cells (1 and 10 μM, 1, 6 or 24 hours), the IL-8 response entry is “time- and concentration-dependent IL-8 response”. In the experiment on HeLa cells, the “PTX sensitivity of the IL-8 response” value was “PTX-sensitive” and the IL-8 induction result was “induce IL-8 in HeLa cells in a concentration-dependent manner”. In addition, in the experiment with HeLa cells (repeated experiments), the “Lowest concentration that reliably induces IL-8” value is reported as “about 30 nM”. The “NF-κB reporter response in control cells” value in experiment [3] (Assay #1) is recorded as “No increase in luciferase activity”. Moreover, the “NF-κB reporter response in control cells” value in experiment [3] (setting [4]) was “No response”. For the same compound, the “NF-κB reporter induction in control cells” value in experiment [3] is “No such induction”.

Compound `CCCCCCCCCCCCC/C=C/[C@@H](O)[C@@H](N)COP(=O)([O-])OCC[N+](C)(C)C` [SPC, sphingosylphosphorylcholine] returned an SRE response at human EDG-3 [1] of 11 fold. Further, the “Induction of the NF-κB reporter gene compared to untreated controls” value in the experiment with human EDG-3 [2] (EDG-3 clone pC3-E3HP2, 3 μM, 6 hours) was “about 8 fold”. For the same compound, the “NF-κB response, original human EDG-3 clone” value in the experiment with human EDG-3 [2] was “did not produce a NF-κB response”. In addition, in the experiment with HeLa cells, the “PTX sensitivity of the IL-8 response” value is given as “PTX-sensitive” and the IL-8 induction entry is on record as “induce IL-8 in HeLa cells in a concentration-dependent manner”. Further, the “NF-κB reporter response in control cells” value in experiment [3] (setting [4]) was “No response”. The “NF-κB reporter induction in control cells” value in experiment [3] was “No such induction”.
